The source of these data is patent US4595698A, “Physiologically active substance, arphamenine and production thereof” (Zaidan Hojin Biseibutsu Kagaku Kenkyu Kai, priority 1982, dated 1986).

Structures are written as SMILES.

The test has as its system cell-mediated immunity (D.T.H. to picryl chloride). Nature of the test: D.T.H. to picryl chloride in mice bearing Ascites Sarcoma 180 tumor, Test Example 2 (2). Format: in vivo, CDF1 mice. Conditions: for Increased thickness of auricles / T/C (%): Table 4, 6 times/day, Day 1 to Day 8; for T/C (%): control = 100. Here is the method: (2) D.T.H. to picryl chloride
In mice bearing Ascites Sarcoma 180 tumor, the effect of arphamenine A on D.T.H. to picryl chloride as antigen was investigated. Thus, 10^6 cells of Ascites Sarcoma 180 were transplanted intraperitoneally into CDF1 mice (12-week-old, female, 6 mice per group). The day of this transplantation was designated as Day 0. On Day 1, a shaved area (25 mm×15 mm) of the abdomen of the mice was immunized with 0.6 ml of a solution of 6% picryl chloride in ethanol which had been absorbed to a mass of cut absorbent cotton (20 mm×20 mm×2 mm in size). On Day 8, the thickness of the auricles of both ears was measured with a dial gauge to obtain a baseline value (a). Then, both auricles were elicited for the D.T.H. response with a solution of 1% picryl chloride in olive oil which had been absorbed to a mass of cut absorbent cotton (10 mm×4 mm×1 mm in size). On Day 9, the swelling degree on the elicited auricles was measured with a dial gauge to obtain a value (b). The baseline value (a) was subtracted from the value (b) to determine an increase in the thickness of the auricles (b-a) in the control group of mice (c).
Separately, 0.5, 0.05 or 0.005 mg/kg of the test compound dissolved in physiological saline was orally administered to another group of CDF1 mise 6 times/day for consecutive days of from Day 1 to Day 8 inclusive, and then the picryl chloride elicitation was carried out with the treated group of mice in the same way as in the control group of mice. The increase in the thickness of both auricles (b'-a') in this treated group of mice (T) was determined in the same way as the control group of mice.
The rate (T/C, %) of the increased thickness of auricles of the treated group (T) in term of that for the control group (c) was calculated from the following equation [formula]
Assumed that the value for the control group was evaluated to be 100%, the activity of the test compound to potentiate cell-mediated immunity was estimated.

For `N=C(N)NCCCC(N)C(=O)CC(Cc1ccccc1)C(=O)O` (stereo not shown) [Arphamenine A], the “activity to enhance cell-mediated immunity (in words)” value (0.05 mg/kg) was “a significant activity to enhance cell-mediated immunity was obtained”. The “Increased thickness of auricles” value by setting is: (0.005 mg/kg orally) 6.40 ± 0.63 × 0.1 mm; (0.05 mg/kg orally, *P <0.05) 7.40 ± 0.72 × 0.1 mm; (0.5 mg/kg orally) 6.05 ± 0.97 × 0.1 mm. Moreover, the “T/C (%)” value is recorded as 143.8% (0.005 mg/kg orally), 166.3% (0.05 mg/kg orally) and 136.0% (0.5 mg/kg orally).
